Common to all, as to format: cell-based
The test system of one experiment is MOLT-4 cells. Kind of experiment: MOLT-4 cell viability, CTG assay. The note with it: Homo sapiens, MOLT-4, 48 h. Put shortly: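 Viability read as total ATP luminescence (CTG) after 48 h compound treatment, 11 points at 5-fold spacing in triplicate, cells in RPMI 1640/10% FBS. IC50 is the concentration halving signal relative to control, four-parameter fit, averaged over at least 2 experiments.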

For another experiment, the target named is T1, HiBiT-tagged BCL-xL (Homo sapiens, UniProt Q07817).
T1 construct: expressed in transfected cells; host or cells: NCI-H1650 (ATCC No. CRL-5883), engineered HiBiT cell line
The experiment can be described thus: NCI-H1650 BCL-xL protein levels, Nano-Glo HiBiT Lytic Detection. The note with it: NCI-H1650 expressing HiBiT-tagged BCL-xL, overnight incubation, read-out: Bcl-xl HIBIT NCIH1650 DC50. Put shortly: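 HiBiT luminescence after cell lysis with LgBiT/furimazine reagent reported BCL-xL levels, expressed relative to untreated wells and fitted with a four-parameter logistic equation. Engineered NCI-H1650 cells were exposed overnight at 37° C to compound at final 0.508 nM-10 μM (10 points, triplicate plates).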
On the technique in general: With HiBiT, luminescence reflects the tagged protein that the partner subunit can reach.

The test system of experiment [1] is EBC-1 lung cancer cell line. Kind of experiment: EBC-1 cell proliferation, CellTiter-Glo assay. Particulars: Homo sapiens, 120 h; Ebc-1 cell viability, CTG assay, 5 days of treatment; read-out: CTG 5 day Ebc1 GI50. In short, it runs like this:
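CellTiter-Glo read-out after 5-day compound treatment, normalised to untreated cells, with GI50 derived by four-parameter logistic regression. Ten concentrations spanning 0.508 nM–10 μM were added to 1000 EBC-1 cells per well the day after seeding. Assays required at least one cell doubling versus Day 0.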
(In general: In ATP-based viability assays light output follows the ATP content of the culture.)

The target in a further experiment is T2, Bcl-xL (Homo sapiens, UniProt Q07817).
T2 construct: Measured levels of Bcl-xL protein of HCT116 cells treated with the tested compounds; host or cells: HCT116
Kind of experiment: HCT116 Bcl-xL degradation, capillary-based immunoassay (WES). The note with it: for DC50: HCT116, 24 h, 9-point serial dilution. In short, it runs like this:
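Bcl-xL protein level by capillary WES immunoassay in HCT116 lysates, as % of untreated after cofilin normalization. Compound exposure was 24 h at 10 and 100 nM and/or a 9-point series, in quadruplicate. Four-parameter fitting gave the DC50.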

Structures are written as SMILES. Bounds are passed on as bounds.

The values below come from patent US20240376094A2, “SELECTIVE BCL-XL PROTAC COMPOUNDS AND METHODS OF USE” (Les Laboratoires Servier, priority 2021, published 2024).

T1 sequence (Q07817 whole entry): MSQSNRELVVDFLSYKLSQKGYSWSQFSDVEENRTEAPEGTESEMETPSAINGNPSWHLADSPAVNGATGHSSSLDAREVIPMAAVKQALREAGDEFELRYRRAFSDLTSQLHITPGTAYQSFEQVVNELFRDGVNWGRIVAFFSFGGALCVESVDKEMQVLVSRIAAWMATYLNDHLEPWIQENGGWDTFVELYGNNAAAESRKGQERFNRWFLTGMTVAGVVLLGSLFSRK
T2 sequence (Q07817 whole entry): as above

Turning to `Cc1ncsc1-c1ccc([C@H](C)NC(=O)[C@@H]2C[C@@H](O)CN2C(=O)[C@@H](NC(=O)CCCCCCCCCCCNC(=O)c2nc(N3CCCc4c3nnc(Nc3nc5ccccc5s3)c4C)ccc2-c2cnn(CC34CC5(C)CC(C)(C3)CC(OCCN3CCCC3)(C5)C4)c2C)C(C)(C)C)cc1` [Example 131, 6-[3-(1,3-benzothiazol-2-ylamino)-4-methyl-6,7-dihydro-5H-pyrido[2,3-c]pyridazin-8-yl]-3-[1-[[3,5-dimethyl-7-(2-pyrrolidin-1-ylethoxy)-1-adamantyl]methyl]-5-methyl-pyrazol-4-yl]-N-[12-[[(1S)-1-[(2S,4R)-4-hydroxy-2-[[(1S)-1-[4-(4-methylthiazol-5-yl)phenyl]ethyl]carbamoyl]pyrrolidine-1-carbonyl]-2,2-dimethyl-propyl]amino]-12-oxo-dodecyl]pyridine-2-carboxamide], the IC50 (usually the midpoint of a concentration-inhibition curve) in the experiment on MOLT-4 cells was found to be 13.9 nM. In addition, the DC50 amounted to 1 nM on HiBiT-tagged BCL-xL and 1.34 nM on Bcl-xL. Further, in experiment [1], the GI50 (usually the concentration at which growth is held to half of that of the control) is 8 nM.

As for `Cc1ncsc1-c1ccc([C@H](C)NC(=O)[C@@H]2C[C@@H](O)CN2C(=O)[C@@H](NC(=O)COCCOCCOCCN(C)CCOC23CC4(C)CC(C)(CC(Cn5ncc(-c6ccc(N7CCCc8c7nnc(Nc7nc9ccccc9s7)c8C)nc6C(=O)O)c5C)(C4)C2)C3)C(C)(C)C)cc1` [Example 113, 6-[3-(1,3-benzothiazol-2-ylamino)-4-methyl-6,7-dihydro-5H-pyrido[2,3-c]pyridazin-8-yl]-3-[1-[[3-[2-[2-[2-[2-[2-[[(1S)-1-[(2S,4R)-4-hydroxy-2-[[(1S)-1-[4-(4-methylthiazol-5-yl)phenyl]ethyl]carbamoyl]pyrrolidine-1-carbonyl]-2,2-dimethyl-propyl]amino]-2-oxo-ethoxy]ethoxy]ethoxy]ethyl-methyl-amino]ethoxy]-5,7-dimethyl-1-adamantyl]methyl]-5-methyl-pyrazol-4-yl]pyridine-2-carboxylic acid], the IC50 with MOLT-4 cells worked out at 20.6 nM. Besides, the DC50 is above 1670 nM at HiBiT-tagged BCL-xL and above 316 nM on Bcl-xL. The GI50 in experiment [1] turned out to be 49 nM.

In the experiment on MOLT-4 cells, `Cc1ncsc1-c1ccc([C@H](C)NC(=O)[C@@H]2C[C@@H](O)CN2C(=O)[C@@H](NC(=O)CCCCCCCCNC(=O)c2nc(N3CCCc4c3nnc(Nc3nc5ccccc5s3)c4C)ccc2-c2cnn(C[C@]34C[C@]5(C)C[C@](C)(C3)C[C@@](OCCN3CCCC3)(C5)C4)c2C)C(C)(C)C)cc1` [Example 124, 6-[3-(1,3-benzothiazol-2-ylamino)-4-methyl-6,7-dihydro-5H-pyrido[2,3-c]pyridazin-8-yl]-3-[1-[[3,5-dimethyl-7-(2-pyrrolidin-1-ylethoxy)-1-adamantyl]methyl]-5-methyl-pyrazol-4-yl]-N-[9-[[(1S)-1-[(2S,4R)-4-hydroxy-2-[[(1S)-1-[4-(4-methylthiazol-5-yl)phenyl]ethyl]carbamoyl]pyrrolidine-1-carbonyl]-2,2-dimethyl-propyl]amino]-9-oxo-nonyl]pyridine-2-carboxamide] displayed an IC50 of 3.69 nM. For the same compound, the DC50 on HiBiT-tagged BCL-xL was found to be 1 nM; on Bcl-xL it was 1.01 nM. Further, the GI50 in experiment [1] was determined as 25 nM.

Take `Cc1ncsc1-c1ccc(CNC(=O)[C@@H]2C[C@@H](O)CN2C(=O)[C@@H](NC(=O)C2(F)CC2)C(C)(C)C)c(OCCCCCCCCCCCCCCN(C)CCOC23CC4(C)CC(C)(CC(Cn5ncc(-c6ccc(N7CCCc8c7nnc(Nc7nc9ccccc9s7)c8C)nc6C(=O)O)c5C)(C4)C2)C3)c1` [Example 146, 6-[3-(1,3-benzothiazol-2-ylamino)-4-methyl-6,7-dihydro-5H-pyrido[2,3-c]pyridazin-8-yl]-3-[1-[[3-[2-[14-[2-[[[(2S,4R)-1-[(2S)-2-[(1-fluorocyclopropanecarbonyl)amino]-3,3-dimethyl-butanoyl]-4-hydroxy-pyrrolidine-2-carbonyl]amino]methyl]-5-(4-methylthiazol-5-yl)phenoxy]tetradecyl-methyl-amino]ethoxy]-5,7-dimethyl-1-adamantyl]methyl]-5-methyl-pyrazol-4-yl]pyridine-2-carboxylic acid]: half-maximal inhibition in the experiment with MOLT-4 cells (IC50) required 3 nM. For the same compound, the DC50 was above 1670 nM at HiBiT-tagged BCL-xL and 0.986 nM at Bcl-xL. For the same compound, the GI50 in experiment [1] turned out to be 3 nM.

As for `Cc1ncsc1-c1ccc(CNC(=O)[C@@H]2C[C@@H](O)CN2C(=O)[C@@H](NC(=O)C2(F)CC2)C(C)(C)SCCCCCCCCCCCCN(C)CCOC23CC4(C)CC(C)(CC(Cn5ncc(-c6ccc(N7CCCc8c7nnc(Nc7nc9ccccc9s7)c8C)nc6C(=O)O)c5C)(C4)C2)C3)cc1` [Example 79, 6-[3-(1,3-benzothiazol-2-ylamino)-4-methyl-6,7-dihydro-5H-pyrido[2,3-c]pyridazin-8-yl]-3-[1-[[3-[2-[12-[(2R)-2-[(1-fluorocyclopropanecarbonyl)amino]-3-[(2S,4R)-4-hydroxy-2-[[4-(4-methylthiazol-5-yl)phenyl]methylcarbamoyl]pyrrolidin-1-yl]-1,1-dimethyl-3-oxo-propyl]sulfanyldodecyl-methyl-amino]ethoxy]-5,7-dimethyl-1-adamantyl]methyl]-5-methyl-pyrazol-4-yl]pyridine-2-carboxylic acid], in the experiment on MOLT-4 cells, the IC50 was found to be 6.06 nM. Moreover, the DC50 on HiBiT-tagged BCL-xL was above 1670 nM; at Bcl-xL, 0.399 nM. In addition, in experiment [1], the GI50 was 66 nM.

Regarding `CNC(=O)c1nc(N2CCCc3c2nnc(Nc2nc4ccccc4s2)c3C)ccc1-c1cnn(CC23CC4(C)CC(C)(C2)CC(OCCN(C)CCCCCCCCCCCCCC(=O)N[C@H](C(=O)N2C[C@H](O)C[C@H]2C(=O)N[C@@H](C)c2ccc(-c5scnc5C)cc2)C(C)(C)C)(C4)C3)c1C` [Example 156, 6-[3-(1,3-benzothiazol-2-ylamino)-4-methyl-6,7-dihydro-5H-pyrido[2,3-c]pyridazin-8-yl]-3-[1-[[3-[2-[[14-[[(1S)-1-[(2S,4R)-4-hydroxy-2-[[(1S)-1-[4-(4-methylthiazol-5-yl)phenyl]ethyl]carbamoyl]pyrrolidine-1-carbonyl]-2,2-dimethyl-propyl]amino]-14-oxo-tetradecyl]-methyl-amino]ethoxy]-5,7-dimethyl-1-adamantyl]methyl]-5-methyl-pyrazol-4-yl]-N-methyl-pyridine-2-carboxamide], the IC50 with MOLT-4 cells was determined as 6.48 nM. For the same compound, the DC50 at HiBiT-tagged BCL-xL is 228 nM; on Bcl-xL, 14.5 nM. In addition, the 50% growth inhibitory concentration (GI50) in experiment [1] worked out at 27 nM.

Turning to `Cc1ncsc1-c1ccc(CNC(=O)[C@@H]2C[C@@H](O)CN2C(=O)[C@@H](NC(=O)C2(F)CC2)C(C)(C)C)c(OCCCCCCCCCCCCCN(C)CCOC23CC4(C)CC(C)(CC(Cn5ncc(-c6ccc(N7CCCc8c7nnc(Nc7nc9ccccc9s7)c8C)nc6C(=O)O)c5C)(C4)C2)C3)c1` [Example 85, 6-[3-(1,3-benzothiazol-2-ylamino)-4-methyl-6,7-dihydro-5H-pyrido[2,3-c]pyridazin-8-yl]-3-[1-[[3-[2-[13-[2-[[[(2S,4R)-1-[(2S)-2-[(1-fluorocyclopropanecarbonyl)amino]-3,3-dimethyl-butanoyl]-4-hydroxy-pyrrolidine-2-carbonyl]amino]methyl]-5-(4-methylthiazol-5-yl)phenoxy]tridecyl-methyl-amino]ethoxy]-5,7-dimethyl-1-adamantyl]methyl]-5-methyl-pyrazol-4-yl]pyridine-2-carboxylic acid], in the experiment with MOLT-4 cells, the IC50 worked out at 4.17 nM. Besides, the DC50 on HiBiT-tagged BCL-xL was determined as 5 nM; on Bcl-xL, 0.291 nM. Further, in experiment [1], the GI50 stood at 64 nM.

`Cc1ncsc1-c1ccc([C@H](C)NC(=O)[C@@H]2C[C@@H](O)CN2C(=O)[C@@H](NC(=O)CCCCCCCCCN(C)CCOC23CC4(C)CC(C)(CC(Cn5ncc(-c6ccc(N7CCCc8c7nnc(Nc7nc9ccccc9s7)c8C)nc6C(=O)O)c5C)(C4)C2)C3)C(C)(C)C)cc1` [Example 133, 6-[3-(1,3-benzothiazol-2-ylamino)-4-methyl-6,7-dihydro-5H-pyrido[2,3-c]pyridazin-8-yl]-3-[1-[[3-[2-[[10-[[(1S)-1-[(2S,4R)-4-hydroxy-2-[[(1S)-1-[4-(4-methylthiazol-5-yl)phenyl]ethyl]carbamoyl]pyrrolidine-1-carbonyl]-2,2-dimethyl-propyl]amino]-10-oxo-decyl]-methyl-amino]ethoxy]-5,7-dimethyl-1-adamantyl]methyl]-5-methyl-pyrazol-4-yl]pyridine-2-carboxylic acid] returned an IC50 in the experiment on MOLT-4 cells of 10.2 nM. Moreover, the DC50 on HiBiT-tagged BCL-xL was above 1670 nM. The GI50 in experiment [1] turned out to be 4 nM. Besides, the remaining activity (in general, the signal under treatment as a percentage of the control signal) at 0.01 µM on Bcl-xL (HCT-116, HCT116, 10 nM, 24 h, % of untreated cells) is 112%. Besides, at Bcl-xL (HCT-116, HCT116, 100 nM, 24 h, % of untreated cells), the remaining activity at 0.1 µM came to 105%.
